According to patent US10174033B2, “N6-substituted adenosine derivatives and N6-substituted adenine derivatives and uses thereof” (INSTITUTE OF MATERIA MEDICA, CHINESE ACADEMY OF MEDICAL …, priority 2009, dated 2019):

Assays:
mice = test: Sub-threshold hypnotic dose sodium pentobarbital induced sleeping test; type: in vivo; settings: intraperitoneal, 30 min before sub-threshold sodium pentobarbital (22 mg/kg ip)
Experimental: N^6-substituted adenosine derivatives and/or N^6-substituted adenine derivatives potentiated sodium pentobarbital-induced sleep in mice
Name of Experiment: Sub-threshold hypnotic dose sodium pentobarbital induced sleeping test
Method of Experiment: Mice (n=7-10) were pretreated with test compound or vehicle, after 30 min, a maximal sub-threshold hypnotic dose of sodium pentobarbital (22 mg/kg) was given intraperitoneally (ip). (On some condition, the sub-threshold dosage of sodium pentobarbital should be optimized to the maximum dose, at which the rate of sleep onset of vehicle group is less than 10%). […] Following sodium pentobarbital injection, each mouse was observed 15 min for onset of sleep. The percentage of sleep onset was calculated as: (number of animals falling asleep/total number of animals)×100%.

male ICR-mice = test: Potentiation of sodium pentobarbital sleeping time test; type: in vivo
Experimental: Effects of N^6-substituted adenosine derivatives and/or N^6-substituted adenine derivatives on sodium pentobarbital-induced sleeping time in mice.
Name of Experiment: Potentiation of sodium pentobarbital sleeping time test.
Method of Experiment: Groups of 8-10 male ICR-mice with an average weight of 18-22 g were used. They were dosed orally or i.p. with the test compound or the vehicle. Thirty min after i.p. injection or 60 min after oral dosing 38 mg/kg sodium pentobarbital were injected intravenously. The latency and duration of sleep (loss of righting reflex) were recorded. The percentage of prolongation of sleeping time was calculated as: [(sleeping time of experimental group)−(sleeping time of control group)]/(sleeping time of control group)×100%.

[1] = intraperitoneal, 5 mg/kg, 38 mg/kg sodium pentobarbital 30 min later
[2] = intraperitoneal, 1 mg/kg, 38 mg/kg sodium pentobarbital 30 min later
[3] = oral, 5 mg/kg, 38 mg/kg sodium pentobarbital 60 min later

In the case of O=C(O)[C@@H](Cc1ccccc1)Nc1ncnc2c1ncn2[C@@H]1O[C@H](CO)C(O)C1O (stereo partly drawn) [Example 103, N-(6-adenosine)-(D)-phenylalanine], the “Sleep rate (%)” value (mice; 5 mg/kg) was 17% and the “Sleep prolonging rate (%)” value (male ICR-mice; [1]) was 19%.

COc1ccc(CCNc2ncnc3c2ncn3[C@@H]2O[C@H](CO)[C@@H](O)[C@H]2O)cc1O [Example 40, N^6-[(3-hydroxy-4-methoxyphenyl)-ethyl]-adenosine] was tested, and the “Sleep rate (%)” value (mice; 1 mg/kg) was 50% and the “Sleep prolonging rate (%)” value (male ICR-mice; [2]) was 1%.

In the case of OC[C@H]1O[C@@H](n2cnc3c(NCCc4c[nH]c5ccccc45)ncnc32)[C@H](O)[C@@H]1O [Example 44, N^6-[(1H-Indole-3-yl)-ethyl]-adenosine], the “Sleep rate (%)” value (mice; 5 mg/kg) was 86%, the “Sleep prolonging rate (%)” value (male ICR-mice; [1]) was 147% and the “Sleep prolonging rate (%)” value (male ICR-mice; [3]) was 78%.

For O=[N+]([O-])c1ccc(CNc2ncnc3c2ncn3[C@@H]2O[C@H](CO)[C@@H](O)[C@H]2O)cc1 [Example 8, N^6-(p-nitrobenzyl)-adenosine], the “Sleep rate (%)” value (mice; 1 mg/kg) was 63%, the “Sleep prolonging rate (%)” value (male ICR-mice; [2]) was 16% and the “Sleep prolonging rate (%)” value (male ICR-mice; [3]) was 29%.

With O=C(O)[C@@H](Cc1ccc(O)cc1)Nc1ncnc2c1ncn2[C@@H]1O[C@H](CO)C(O)C1O (stereo partly drawn) [Example 106, N-(6-adenosine)-(D)-tyrosine] the “Sleep rate (%)” value (mice; 5 mg/kg) was 17% and the “Sleep prolonging rate (%)” value (male ICR-mice; [1]) was 82%.

With COc1cc(CNc2ncnc3c2ncn3[C@@H]2O[C@H](CO)C(O)C2O)cc(OC)c1O (stereo partly drawn) [Example 36, N^6-(4-hydroxy-3,5-dimethxoybenzyl)-adenosine] the “Sleep rate (%)” value (mice; 5 mg/kg) was 86%, the “Sleep prolonging rate (%)” value (male ICR-mice; [1]) was 336% and the “Sleep prolonging rate (%)” value (male ICR-mice; [3]) was 121%.

O=C(O)[C@@H](CO)Nc1ncnc2c1ncn2[C@@H]1O[C@H](CO)C(O)C1O (stereo partly drawn) [Example 125, N-(6-adenosine)-(D)-serine] was tested, and the “Sleep rate (%)” value (mice; 5 mg/kg, listed as N-(6-adenosine)-(D)-serine) was 14% and the “Sleep prolonging rate (%)” value (male ICR-mice; intraperitoneal, 5 mg/kg, 38 mg/kg sodium pentobarbital 30 min later, listed as N-(6-adenosine)-(D)-serine) was 0%.

With OC[C@H]1O[C@@H](n2cnc3c(NCc4ccc(O)c(O)c4)ncnc32)[C@H](O)[C@@H]1O [Example 22, N^6-(3,4-dihydroxybenzyl)-adenosine] the “Sleep rate (%)” value (mice; 1 mg/kg) was 87%, the “Sleep rate (%)” value (mice; 5 mg/kg) was 100% and the “Sleep prolonging rate (%)” value (male ICR-mice; [1]) was 32%. The “Sleep prolonging rate (%)” value (male ICR-mice; oral, 4 mg/kg, 38 mg/kg sodium pentobarbital 60 min later) was 74%.

For COc1cc(CCNc2ncnc3c2ncn3[C@@H]2O[C@H](CO)[C@@H](O)[C@H]2O)ccc1O [Example 39, N^6-[(3-methoxy-4-hydroxyphenyl)-ethyl]-adenosine], the “Sleep rate (%)” value (mice; 1 mg/kg) was 88% and the “Sleep prolonging rate (%)” value (male ICR-mice; [2]) was 13%.

For CC(Nc1ncnc2c1ncn2[C@@H]1O[C@H](CO)[C@@H](O)[C@H]1O)c1ccccc1 (mixture of isomers) [Example 45, N^6-[(±)-1-(phenyl)-ethyl]-adenosine], the “Sleep rate (%)” value (mice; 5 mg/kg) was 100%, the “Sleep prolonging rate (%)” value (male ICR-mice; [1]) was 254% and the “Sleep prolonging rate (%)” value (male ICR-mice; [3]) was 201%.

With COc1ccc(CNc2ncnc3c2ncn3[C@@H]2O[C@H](CO)[C@@H](O)[C@H]2O)cc1OC [Example 30, N^6-(3,4-dimethoxybenzyl)-adenosine] the “Sleep rate (%)” value (mice; 1 mg/kg) was 100%.

In the case of COc1ccc(CNc2ncnc3c2ncn3[C@@H]2O[C@H](CO)[C@@H](O)[C@H]2O)cc1O [Example 29, N^6-(4-methoxy-3-hydroxybenzyl)-adenosine], the “Sleep rate (%)” value (mice; 1 mg/kg) was 86%.

OC[C@H]1O[C@@H](n2cnc3c(NCc4ccco4)ncnc32)[C@H](O)[C@@H]1O [Example 17, N^6-(2-furanylmethyl)-adenosine] was tested, and the “Sleep rate (%)” value (mice; 5 mg/kg) was 71%.

With COc1ccccc1CNc1ncnc2c1ncn2[C@@H]1O[C@H](CO)[C@@H](O)[C@H]1O [N^6-(o-methoxybenzyl)-adenosine] the “Sleep rate (%)” value (mice; 1 mg/kg) was 100%.

For Cc1ccc(-c2nc3ccc(C)cn3c2CC(=O)N(C)C)cc1 [zolpidem, reference compound], the “Sleep rate (%)” value (mice; 2 mg/kg) was 75%.

O=[N+]([O-])c1ccccc1CNc1ncnc2c1ncn2[C@@H]1O[C@H](CO)[C@@H](O)[C@H]1O [Example 9, N^6-(o-nitrobenzyl)-adenosine] was tested, and the “Sleep rate (%)” value (mice; 1 mg/kg) was 100%.

For CCCCCCCC(=O)OCC1OC(n2cnc3c(NCc4ccc5c(c4)OCO5)ncnc32)C2OC(C)(C)OC12 (stereo not drawn) [N^6-(3,4-methylenedioxybenzyl)-2′,3′-O-isopropylidene-adenosine-5′-caprylate], the “Sleep prolonging rate (%)” value (male ICR-mice; [3]) was 4%.

“N^6-[(R)-1-(phenyl)-propyl]-2′,3′-O-isopropylidene-adenosine-5′-acetate” was tested, and the “Sleep prolonging rate (%)” value (male ICR-mice; [3]) was 18%.

For COC(=O)[C@@H](Cc1ccccc1)Nc1ncnc2c1ncn2[C@@H]1O[C@H](CO)C(O)C1O (stereo partly drawn) [Example 105, N-(6-adenosine)-(D)-phenylalanine methyl ester], the “Sleep prolonging rate (%)” value (male ICR-mice; [3]) was 2%.

In the case of Cc1ccc(CNc2ncnc3c2ncn3[C@@H]2O[C@H](CO)[C@@H](O)[C@H]2O)o1 [Example 18, N^6-(5-methyl-2-furanylmethyl)-adenosine], the “Sleep prolonging rate (%)” value (male ICR-mice; [1]) was 7%.

In the case of OC[C@H]1O[C@@H](n2cnc3c(NCc4cccs4)ncnc32)[C@H](O)[C@@H]1O [Example 19, N^6-(2-thiopheneylmethyl)-adenosine], the “Sleep prolonging rate (%)” value (male ICR-mice; [1]) was 12%.

In the case of CCCCCCCCCCCC(=O)OCC1OC(n2cnc3c(NCc4ccc(OC(=O)CCCCCCCCCCC)c(OC)c4)ncnc32)C2OC(C)(C)OC12 (stereo not drawn) [Example 25, N^6-(3-methoxy-4-lauroyloxybenzyl)-2′,3′-O-isopropylidene-adenosine-5′-laurate], the “Sleep prolonging rate (%)” value (male ICR-mice; [3]) was 27%.

In the case of CCCCCCCC(=O)OC[C@H]1O[C@@H](n2cnc3c(NCc4ccc5c(c4)OCO5)ncnc32)[C@H](O)[C@@H]1O [Example 32, N^6-(3,4-methylenedioxybenzyl)-adenosine-5′-caprylate], the “Sleep prolonging rate (%)” value (male ICR-mice; [3]) was 26%.

OCCN(Cc1ccccc1)c1ncnc2c1ncn2[C@@H]1O[C@H](CO)[C@@H](O)[C@H]1O [Example 138, N^6-(2-hydroxyethyl)-N^6-benzyl-adenosine] was tested, and the “Sleep prolonging rate (%)” value (male ICR-mice; [3]) was 18%.

For CCCC(Nc1ncnc2c1ncn2[C@@H]1O[C@H](CO)[C@@H](O)[C@H]1O)c1ccccc1 (mixture of isomers) [Example 87, N^6-[(±)-1-(phenyl)-butyl]-adenosine], the “Sleep prolonging rate (%)” value (male ICR-mice; [3]) was 57%.

For Cc1ccc([C@H](C)Nc2ncnc3c2ncn3[C@@H]2O[C@H](CO)[C@@H](O)[C@H]2O)cc1 [Example 60, N^6-[(S)-1-(4-methylphenyl)-ethyl]adenosine], the “Sleep prolonging rate (%)” value (male ICR-mice; [3]) was 19%.

For Cc1ccc([C@@H](C)Nc2ncnc3c2ncn3[C@@H]2O[C@H](CO)[C@@H](O)[C@H]2O)cc1 [Example 59, N^6-[(R)-1-(4-methylphenyl)-ethyl]-adenosine], the “Sleep prolonging rate (%)” value (male ICR-mice; [3]) was 99%.

In the case of OC[C@@H](Nc1ncnc2c1ncn2[C@@H]1O[C@H](CO)[C@@H](O)[C@H]1O)c1ccccc1 [Example 64, N^6-[(L)-2-(hydroxy)-1-(phenyl)-ethyl]-adenosine], the “Sleep prolonging rate (%)” value (male ICR-mice; [3]) was 67%.

With COc1cc(CNc2ncnc3nc[nH]c23)ccc1O [N^6-(3-methoxy-4-hydroxybenzyl)-adenine] the “Sleep rate (%)” value (mice; 1 mg/kg) was 38%.

OC[C@H](Nc1ncnc2c1ncn2[C@@H]1O[C@H](CO)C(O)C1O)[C@@H](O)c1ccccc1 (stereo partly drawn) [Example 41, N^6-[(1S,2S)-2-(1,3-dihydroxy-1-phenyl)-propyl]-adenosine] was tested, and the “Sleep prolonging rate (%)” value (male ICR-mice; [3]) was 33%.

In the case of CC[C@@H](Nc1ncnc2c1ncn2[C@@H]1O[C@H](COC(C)=O)C(O)C1O)c1ccccc1 (stereo partly drawn) [Example 77, N^6-[(R)-1-(phenyl)-propyl]-adenosine-5′-acetate], the “Sleep prolonging rate (%)” value (male ICR-mice; [3]) was 590%.

With CC(Nc1ncnc2c1ncn2[C@@H]1O[C@H](CO)[C@@H](O)[C@H]1O)c1ccc(O)cc1 (mixture of isomers) [Example 47, N^6-[(±)-1-(4-hydroxyphenyl)-ethyl]-adenosine] the “Sleep prolonging rate (%)” value (male ICR-mice; [3]) was 50%.

In the case of COc1cccc([C@H](C)Nc2ncnc3c2ncn3[C@@H]2O[C@H](CO)[C@@H](O)[C@H]2O)c1 [Example 66, N^6-[(S)-1-(3-methoxyphenyl)-ethyl]-adenosine], the “Sleep prolonging rate (%)” value (male ICR-mice; [3]) was 39%.

For CC(=O)OC[C@H]1O[C@@H](n2cnc3c(NCc4ccc5c(c4)OCO5)ncnc32)C[C@H]1OC(C)=O [Example 154, N^6-(3,4-methylenedioxy-benzyl)-3′,5′-diacetyl-2′-deoxyadenosine], the “Sleep prolonging rate (%)” value (male ICR-mice; [3]) was 29%.

For OC[C@H]1O[C@@H](n2cnc3c(NC4c5ccccc5-c5ccccc54)ncnc32)[C@H](O)[C@@H]1O [Example 98, N^6-(fluorene-9-yl)-adenosine], the “Sleep prolonging rate (%)” value (male ICR-mice; [3]) was 53%.
